Measurements taken from the NIST ThermoML archive (doi:10.1021/je700751a).
± gives the expanded uncertainty stated by the source.

Assay: osmotic coefficient (dimensionless); mn = molality of the nth substance listed, in mol/kg
Conditions: Liquid, isopiestic method

Q: With `O=C([O-])[C@H](O)[C@@H](O)C(=O)[O-].[K+].[K+]` [dipotassium L-tartrate] + O as the molecule, how does the osmotic coefficient (298.15 K, m1 = 0) read?
A: The osmotic coefficient was 1 ± 0.001.

Q: What about the osmotic coefficient (298.15 K, m1 = 0.3635) of the same molecule?
A: The osmotic coefficient was 0.713 ± 0.014.

Q: And the osmotic coefficient (298.15 K, m1 = 0.604)?
A: The osmotic coefficient was 0.683 ± 0.016.

Q: And the osmotic coefficient (298.15 K, m1 = 0.7532)?
A: The osmotic coefficient was 0.675 ± 0.016.

Q: What about the osmotic coefficient (298.15 K, m1 = 1.285) of the same molecule?
A: The osmotic coefficient was 0.677 ± 0.016.

Q: What about the osmotic coefficient (298.15 K, m1 = 1.702) of the same molecule?
A: Its osmotic coefficient is 0.691 ± 0.015.

Q: And the osmotic coefficient (298.15 K, m1 = 1.861)?
A: The osmotic coefficient was 0.691 ± 0.015.

Q: And the osmotic coefficient (298.15 K, m1 = 2.212)?
A: Its osmotic coefficient is 0.704 ± 0.015.

Q: And the osmotic coefficient (298.15 K, m1 = 2.379)?
A: The osmotic coefficient was 0.711 ± 0.014.

Q: And the osmotic coefficient (298.15 K, m1 = 2.466)?
A: Its osmotic coefficient is 0.705 ± 0.015.

Q: And the osmotic coefficient (298.15 K, m1 = 2.837)?
A: The osmotic coefficient was 0.719 ± 0.014.

Q: And the osmotic coefficient (298.15 K, m1 = 3.236)?
A: The osmotic coefficient was 0.728 ± 0.014.

Q: What about the osmotic coefficient (298.15 K, m1 = 4.168) of the same molecule?
A: The osmotic coefficient was 0.759 ± 0.012.

Q: What about the osmotic coefficient (298.15 K, m1 = 4.379) of the same molecule?
A: The osmotic coefficient was 0.77 ± 0.01.

Q: And the osmotic coefficient (298.15 K, m1 = 4.631)?
A: The osmotic coefficient was 0.771 ± 0.011.

Q: What about the osmotic coefficient (298.15 K, m1 = 4.845) of the same molecule?
A: Its osmotic coefficient is 0.775 ± 0.011.

Q: And the osmotic coefficient (298.15 K, m1 = 6.72)?
A: The osmotic coefficient was 0.805 ± 0.01.

Q: And the osmotic coefficient (298.15 K, m1 = 6.869)?
A: The osmotic coefficient was 0.804 ± 0.01.

Q: What about the osmotic coefficient (308.15 K, m1 = 0) of the same molecule?
A: Its osmotic coefficient is 1 ± 0.001.

Q: And the osmotic coefficient (308.15 K, m1 = 0.3282)?
A: Its osmotic coefficient is 0.721 ± 0.014.

Q: And the osmotic coefficient (308.15 K, m1 = 0.7152)?
A: The osmotic coefficient was 0.706 ± 0.015.

Q: And the osmotic coefficient (308.15 K, m1 = 0.9198)?
A: The osmotic coefficient was 0.702 ± 0.015.

Q: What about the osmotic coefficient (308.15 K, m1 = 1.135) of the same molecule?
A: Its osmotic coefficient is 0.692 ± 0.015.

Q: What about the osmotic coefficient (308.15 K, m1 = 1.327) of the same molecule?
A: The osmotic coefficient was 0.694 ± 0.015.

Q: What about the osmotic coefficient (308.15 K, m1 = 1.854) of the same molecule?
A: Its osmotic coefficient is 0.705 ± 0.015.

Q: And the osmotic coefficient (308.15 K, m1 = 2.215)?
A: The osmotic coefficient was 0.712 ± 0.014.

Q: What about the osmotic coefficient (308.15 K, m1 = 2.842) of the same molecule?
A: The osmotic coefficient was 0.725 ± 0.014.

Q: And the osmotic coefficient (308.15 K, m1 = 3.585)?
A: The osmotic coefficient was 0.751 ± 0.012.

Q: And the osmotic coefficient (308.15 K, m1 = 4.177)?
A: The osmotic coefficient was 0.764 ± 0.012.

Q: What about the osmotic coefficient (308.15 K, m1 = 5.047) of the same molecule?
A: The osmotic coefficient was 0.78 ± 0.011.

Q: And the osmotic coefficient (308.15 K, m1 = 5.836)?
A: The osmotic coefficient was 0.793 ± 0.01.

Q: And the osmotic coefficient (308.15 K, m1 = 6.435)?
A: Its osmotic coefficient is 0.806 ± 0.01.

Q: What about the osmotic coefficient (318.15 K, m1 = 0) of the same molecule?
A: Its osmotic coefficient is 1 ± 0.001.

Q: And the osmotic coefficient (318.15 K, m1 = 0.2468)?
A: Its osmotic coefficient is 0.741 ± 0.013.

Q: And the osmotic coefficient (318.15 K, m1 = 0.3446)?
A: Its osmotic coefficient is 0.745 ± 0.013.

Q: And the osmotic coefficient (318.15 K, m1 = 0.5504)?
A: Its osmotic coefficient is 0.721 ± 0.014.

Q: And the osmotic coefficient (318.15 K, m1 = 0.6181)?
A: Its osmotic coefficient is 0.712 ± 0.014.

Q: What about the osmotic coefficient (318.15 K, m1 = 0.9764) of the same molecule?
A: The osmotic coefficient was 0.707 ± 0.015.

Q: And the osmotic coefficient (318.15 K, m1 = 1.276)?
A: The osmotic coefficient was 0.702 ± 0.015.

Q: What about the osmotic coefficient (318.15 K, m1 = 1.536) of the same molecule?
A: Its osmotic coefficient is 0.712 ± 0.014.

Q: What about the osmotic coefficient (318.15 K, m1 = 1.995) of the same molecule?
A: Its osmotic coefficient is 0.723 ± 0.014.

Q: What about the osmotic coefficient (318.15 K, m1 = 2.646) of the same molecule?
A: Its osmotic coefficient is 0.737 ± 0.013.

Q: What about the osmotic coefficient (318.15 K, m1 = 2.934) of the same molecule?
A: The osmotic coefficient was 0.751 ± 0.012.

Q: And the osmotic coefficient (318.15 K, m1 = 4.154)?
A: The osmotic coefficient was 0.777 ± 0.011.

Q: What about the osmotic coefficient (318.15 K, m1 = 4.813) of the same molecule?
A: The osmotic coefficient was 0.791 ± 0.01.

Q: And the osmotic coefficient (318.15 K, m1 = 5.749)?
A: The osmotic coefficient was 0.804 ± 0.01.
